Assay [1] concerns the target STING (Canis lupus familiaris, UniProt A0A8I3MH52). In words: Dog whole blood (dWB) assay, IFNb secretion by ELISA. It is filed as cell-based. The following applies: canine Interferon-beta (IFNb) ELISA, 4 h incubation at 37° C. The method, boiled down: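 Citrated dog whole blood (stored overnight at 4 °C) was preincubated with compound for 60 min at room temperature, top concentration 10 μM with about 1:4 steps and 0.1% DMSO. It was then incubated 4 h at 37 °C, with cGAMP added only to the high-control wells. Plasma IFNb was measured by canine ELISA (A450), normalised to the cGAMP-stimulated and unstimulated controls, and EC50 was fitted with a 4-parameter logistic model.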
(ELISA stands for enzyme-linked immunosorbent assay.)

Assay [2] has as its system dog STING (dSTING). In words: Dog differential scanning fluorimetry (DSF) assay, thermal shift of dog STING protein. It is filed as binding. The conditions noted are these: DSF (dDSF); 100 μM compound, 3 μM dog STING protein; Tm with ligand minus Tm of protein alone. The method, boiled down: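 Dog STING residues 149–375, His-tag removed by TEV, tested at 3 μM with 100 μM compound, 5× SYPRO Orange and 2% DMSO in 20 mM Tris, 150 mM NaCl, pH 7.5. Heated 15–95 °C in 0.5 °C steps. Tm from Boltzmann fit, duplicates averaged; ΔTm relative to protein alone.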

Sequence of STING (A0A8I3MH52 1-374): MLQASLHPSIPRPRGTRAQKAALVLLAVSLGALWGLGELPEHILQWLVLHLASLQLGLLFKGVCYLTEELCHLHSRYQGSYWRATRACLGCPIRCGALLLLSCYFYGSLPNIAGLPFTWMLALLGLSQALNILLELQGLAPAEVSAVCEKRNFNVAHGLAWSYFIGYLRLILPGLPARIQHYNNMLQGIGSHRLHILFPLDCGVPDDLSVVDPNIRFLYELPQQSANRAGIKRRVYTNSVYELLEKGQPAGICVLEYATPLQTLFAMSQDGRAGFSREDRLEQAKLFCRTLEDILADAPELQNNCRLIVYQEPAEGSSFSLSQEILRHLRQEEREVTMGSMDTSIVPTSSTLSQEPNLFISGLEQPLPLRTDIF

The term EC50 denotes the midpoint of the concentration-response curve. A lower EC50 goes with an effect from little substance. In assay [1], `Cc1c(F)ccc2c(-c3cccc4nn(C)c(F)c34)nn(-c3ccc(N4C[C@@H]5[C@H](C4)[C@H]5C(=O)O)nc3)c12` [Example 11, (1R,5S,6R)-3-(5-{3″,6-Difluoro-2″,7-dimethyl-1H,2″H-[3,4″-biindazol]-1-yl}pyridin-2-yl)-3-azabicyclo[3.1.0]hexane-6-carboxylic acid] registered an EC50 of 458 nM. Besides, the “Delta TM” value in assay [2] was determined as 34.8 °C.

For the compound `Cc1cccc2c(-c3ccc(F)c4nn(C)cc34)nn(-c3ccc(N4CCC(C(=O)O)CC4)nc3)c12` [Example 4, 1-(5-{7″-Fluoro-2″,7-dimethyl-1H,2″H-[3,4″-biindazol]-1-yl}pyridin-2-yl)piperidine-4-carboxylic acid], the EC50 in assay [1] stood at 757 nM. In addition, in assay [2], the “Delta TM” value is 31.0 °C.

In the case of `Cc1cccc2c(-c3c(F)ccc4nn(C)cc34)nn(-c3ccc(N4CC5CCC4CC5C(=O)O)nc3)c12` (single isomer, unassigned) [Example 28-4], in assay [1], the EC50 turned out to be 206 nM. In addition, the “Delta TM” value in assay [2] was determined as 37.9 °C.

Regarding `Cc1cccc2c(-c3cc(F)cc4nn(C)cc34)nn(-c3ccc(N4C[C@@H]5[C@H](C4)[C@H]5C(=O)O)nc3)c12` [Example 34, (1R,5S,6R)-3-(5-{6″-fluoro-2″,7-dimethyl-1H,2″H-[3,4″-biindazol]-1-yl}pyridin-2-yl)-3-azabicyclo[3.1.0]hexane-6-carboxylic acid], in assay [1], the EC50 is 3280 nM. The “Delta TM” value in assay [2] amounted to 24.8 °C.

`Cc1cccc2c(-c3cccc4nn(C)c(F)c34)nn(-c3ccc(N4CC5CCC4CC5C(=O)O)nc3)c12` (single isomer, unassigned) [Example 20-4, 2-(5-{3'-fluoro-2',7-dimethyl-1H,2'H-[3,4'-biindazol]-1-yl}pyridin-2-yl)-2-azabicyclo[2.2.2]octane-5-carboxylic acid]: the concentration giving a half-maximal response (EC50) in assay [1] is 207 nM. Moreover, the “Delta TM” value in assay [2] amounted to 36.9 °C.

For `Cc1cccc2c(-c3c(F)cc(F)c4nn(C)cc34)nn(-c3ccc(N4CC5CCC4CC5C(=O)O)nc3)c12` (single isomer, unassigned) [Example 48-3], a half-maximal effect in assay [1] (EC50) was put at 184 nM. Further, the “Delta TM” value in assay [2] was 35.4 °C.

Consider `Cc1cccc2c(-c3ccc(F)c4nn(C)c(F)c34)nn(-c3ccc(N4CC[C@H](CC(=O)O)C4)nc3)c12` [Example 55, 2-[(3R)-1-(5-{3″,7″-difluoro-2″,7-dimethyl-1H,2″H-[3,4″-biindazol]-1-yl}pyridin-2-yl)pyrrolidin-3-yl]acetic acid], for which the EC50 in assay [1] amounted to 197 nM. The “Delta TM” value in assay [2] was 34.5 °C.

Compound `CC(=O)N1C[C@H]2C[C@@H]1CN2c1ccc(-n2nc(-c3c(F)cc(F)c4nn(C)cc34)c3cccc(C)c32)cn1` [Example 51, 1-[(1R,4R)-5-(5-{5″,7″-difluoro-2″,7-dimethyl-1H,2″H-[3,4″-biindazol]-1-yl}pyridin-2-yl)-2,5-diazabicyclo[2.2.1]heptan-2-yl]ethan-1-one] registered an EC50 in assay [1] of 670 nM. Besides, in assay [2], the “Delta TM” value turned out to be 29.0 °C.

In assay [1], `CC(=O)N1CCN(c2ccc(-n3nc(-c4cccc5nn(C)c(F)c45)c4cc(F)cc(C)c43)cn2)CC1` [Example 59, 1-[4-(5-{3″,5-difluoro-2″,7-dimethyl-1H,2″H-[3,4″-biindazol]-1-yl}pyridin-2-yl)piperazin-1-yl]ethan-1-one] displayed an EC50 of 207 nM. Also, the “Delta TM” value in assay [2] came out at 22.0 °C.

On to `Cc1cccc2c(-c3cccc4nn(C)c(F)c34)nn(-c3ccc(N4CC[C@H](CC(=O)O)C4)nc3)c12` [Example 17, 2-[(3R)-1-(5-{3″-fluoro-2″,7-dimethyl-1H,2″H-[3,4″-biindazol]-1-yl}pyridin-2-yl)pyrrolidin-3-yl]acetic acid], for which, in assay [1], a half-maximal effect (EC50) was put at 185 nM. Also, the “Delta TM” value in assay [2] was 35.8 °C.

In assay [1], `Cc1cccc2c(-c3c(F)cc(F)c4nn(C)cc34)nn(-c3ccc(N4C[C@@H]5C[C@H]4C[C@H]5C(=O)O)nc3)c12` (single isomer, unassigned) [Example 47-1] came in with an EC50 of 628 nM. In addition, the “Delta TM” value in assay [2] is 34.0 °C.

`CC(=O)N1CCN(c2ccc(-n3nc(-c4c(F)ccc5nn(C)cc45)c4cc(F)cc(C)c43)cn2)CC1` [Example 63, 1-[4-(5-{5,5″-difluoro-2″,7-dimethyl-1H,2″H-[3,4″-biindazol]-1-yl}pyridin-2-yl)piperazin-1-yl]ethan-1-one]: the EC50 in assay [1] was 96.8 nM. Also, the “Delta TM” value in assay [2] came out at 27.4 °C.
